{"source": "patent US20200001104A1", "about": "“SCALABLE MAGNETOMECHANICAL SCHEMES AND DEVICES FOR REMOTE CONTROL OF MECHANOSENSITIVE CELLS” (Massachusetts Institute of Technology, priority 2018, published 2020)", "test_system": "dorsal root ganglion (DRG) explant cultures", "experiment": "Magnetomechanical stimulation in the presence of channel blockers, calcium imaging", "type": "cell-based, rat", "key": {"[1]": {"settings": "cells incubated with blocker, all doses, one-way ANOVA, n=6"}, "[2]": {"settings": "blocker at 100 μM, MNDs plus MF"}}, "note": "Entries after “also recorded” stand apart in the source; their conditions may differ. Read-outs that look alike come from different tables or passages of the source."}
{"compound": "CCCCCC/C=C\\CCCCCCCC(=O)O", "note": "[PA, palmitoleic acid]", "values": [{"measurement": "Ca2+ response to magnetomechanical stimulation", "setting": "blocker at 30-300 μM, MNDs plus MF", "value": "failed to block; also recorded: do not affect"}, {"measurement": "number of responders to magnetomechanical stimulation", "setting": "[1]", "value": "No significant difference"}]}
{"compound": "ruthenium red [RuR]", "values": [{"measurement": "Ca2+ response (ΔF/F0) to magnetomechanical stimulation", "setting": "blocker at 10 μM, MNDs plus MF", "value": "larger ΔF/F0 changes; also recorded: increases"}, {"measurement": "Ca2+ response to magnetomechanical stimulation", "setting": "[2]", "value": "returns to baseline levels"}, {"measurement": "number of responders to magnetomechanical stimulation", "setting": "[1]", "value": "No significant difference"}]}
{"compound": "NC1=N[C@H](O)[C@H]2[C@H]3O[C@]4(O)O[C@@H]([C@@H](O)[C@@]2(N1)[C@@H]4O)[C@]3(O)CO", "note": "[TTX, tetrodotoxin]", "values": [{"measurement": "Ca2+ response to magnetomechanical stimulation", "value": "failed to block; also recorded: do not affect"}, {"measurement": "number of responders to magnetomechanical stimulation", "value": "No significant difference"}]}
{"compound": "[Cl][Gd]([Cl])[Cl]", "note": "[Gd^3+, Gadolinium(III) (Gd^3+) chloride]", "values": [{"measurement": "Ca2+ response to magnetomechanical stimulation", "setting": "[2]", "value": "enhanced response; also recorded: increases Ca^2+ influx"}, {"measurement": "Ca2+ response to magnetomechanical stimulation", "setting": "blocker at 1000 μM (1 mM), MNDs plus MF", "value": "reduced response; also recorded: nearly eliminates Ca^2+ activity"}, {"measurement": "fraction of cells responding to magnetomechanical stimulation", "setting": "blocker at 1 mM, one-way ANOVA and Tukey's HSD, n=6", "value": "significantly lower fraction"}]}
